Data from PubChem BioAssay (NCI).
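Each compound was tested at five concentrations against cells in 96-well plates for 48 hours. GI50 marks 50% less growth. TGI: concentration producing complete growth inhibition.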

Experiments:
Assay in all cases: inhibition of tumour cell growth, NCI panel, 48 h
ACHN renal = tested on: ACHN renal
COLO 205 colon = tested on: COLO 205 colon
HCT-15 colon = tested on: HCT-15 colon
KM12 colon = tested on: KM12 colon
MOLT-4 leukemia = tested on: MOLT-4 leukemia
OVCAR-4 ovarian = tested on: OVCAR-4 ovarian
RPMI-8226 leukemia = tested on: RPMI-8226 leukemia
RXF 393 renal = tested on: RXF 393 renal
UACC-62 melanoma = tested on: UACC-62 melanoma
BT-549 breast = tested on: BT-549 breast

| Compound | GI50 (ACHN renal) | TGI (ACHN renal) | GI50 (COLO 205 colon) | TGI (COLO 205 colon) | GI50 (HCT-15 colon) | GI50 (KM12 colon) | TGI (KM12 colon) | GI50 (MOLT-4 leukemia) | TGI (MOLT-4 leukemia) | GI50 (OVCAR-4 ovarian) | TGI (OVCAR-4 ovarian) | GI50 (RPMI-8226 leukemia) | TGI (RPMI-8226 leukemia) | GI50 (RXF 393 renal) | TGI (RXF 393 renal) | GI50 (UACC-62 melanoma) | TGI (UACC-62 melanoma) | TGI (HCT-15 colon) | GI50 (BT-549 breast) | TGI (BT-549 breast) |
| --- | --- | --- | --- | --- | --- | --- | --- | --- | --- | --- | --- | --- | --- | --- | --- | --- | --- | --- | --- | --- |
| CN(O)C(=O)SCC(NC(=O)CCC(N)C(=O)O)C(=O)NCC(=O)O (stereo unspecified) | > 2000 µM | > 2000 µM | > 2000 µM | > 2000 µM | > 2000 µM | > 2 µM | > 2000 µM | > 2 µM | > 2000 µM | > 2000 µM | > 2000 µM | > 2000 µM | > 2000 µM | > 2000 µM | > 2000 µM | > 2000 µM | > 2000 µM | – | – | – |
| COc1ccc(/C=N/N=C(\N)NO)cc1O | – | – | – | > 100 µM | – | – | > 100 µM | – | > 100 µM | – | > 100 µM | – | > 100 µM | – | > 100 µM | – | > 100 µM | > 100 µM | – | – |
| O/N=C1/C(=C/c2ccc3c(c2)OCO3)CCCC1C(NO)c1ccc2c(c1)OCO2 (stereo unspecified) | – | > 100 µM | – | 64.9 µM | – | – | 43.6 µM | – | 42.5 µM | – | 75.1 µM | – | 40.9 µM | – | 55 µM | – | 39.8 µM | 83.8 µM | – | – |
| COC(=O)CC1C[C@H](C#N)N(C(=O)c2ccccc2)C[C@@H]1CC[N+](=O)[O-] (stereo partly specified) | – | > 100 µM | – | > 100 µM | – | – | > 100 µM | – | > 100 µM | – | > 100 µM | – | > 100 µM | – | > 100 µM | – | > 100 µM | > 100 µM | – | – |
| O=C(O)CCCSC(=O)Nc1ccc(N=Nc2ccccc2)cc1 | – | > 100 µM | – | > 100 µM | – | – | > 100 µM | – | > 100 µM | – | > 100 µM | – | > 100 µM | – | > 100 µM | – | > 100 µM | > 100 µM | – | – |
| CN1CCC2(CC1)ONC1=NCCN12 | 23.7 µM | 74.5 µM | 31.1 µM | > 100 µM | 24.1 µM | 26.6 µM | > 100 µM | 23.6 µM | > 100 µM | > 100 µM | > 100 µM | – | – | – | – | 31.2 µM | > 100 µM | > 100 µM | 53.1 µM | > 100 µM |
| O=C(COc1ccc(Cl)cc1)N1N=C(c2ccc(Cl)cc2)CC1(O)c1ccccc1 (stereo unspecified) | – | > 100 µM | – | 54.6 µM | – | – | 31.4 µM | – | 30.6 µM | – | 21 µM | – | > 37.6 µM | – | – | – | 41.6 µM | > 58.1 µM | – | – |
| CC1=C(C(=O)Nc2cc(=O)n(C)c(=O)n2C)C(c2ccco2)C(C(=O)Nc2cc(=O)n(C)c(=O)n2C)=C(C)N1 | – | > 100 µM | – | > 100 µM | – | – | > 100 µM | – | > 100 µM | – | > 100 µM | – | > 100 µM | – | > 100 µM | – | – | – | – | – |
| CCN(CC)c1c(C(=O)/C=C/c2ccc(Cl)cc2)c(-c2ccccc2)nn(C)c1=O | – | 3.38 µM | – | 4.01 µM | – | – | – | – | 5.06 µM | – | 3.27 µM | – | 5.2 µM | – | 2.8 µM | – | 3.31 µM | 3.31 µM | – | – |
| Cc1cccc(/C=C/c2c(C(=O)/C=C/c3ccccc3)c(C)nc3ccccc23)c1 | 1.62 µM | 2.97 µM | 1.81 µM | 4.34 µM | 1.26 µM | 1.72 µM | 3.56 µM | 0.508 µM | 3.72 µM | – | – | – | – | 1.51 µM | 2.86 µM | 1.58 µM | 3.14 µM | 3.57 µM | – | – |
| O=C(O)C1=C(O)C(C(=O)O)C23CCCCCCCCCCC12C(C(=O)O)C(O)=C3C(=O)O (stereo unspecified) | – | > 100 µM | – | > 100 µM | – | – | > 100 µM | – | > 100 µM | – | – | – | > 100 µM | – | > 100 µM | – | – | > 100 µM | – | – |
| O=C(NCCCCNc1cccccc1=O)OCc1ccccc1 | – | > 100 µM | – | > 100 µM | – | – | > 100 µM | – | > 100 µM | – | > 100 µM | – | > 100 µM | – | – | – | > 100 µM | > 100 µM | – | – |
| Cc1cc(CC(=O)NCCO)n(CCO)c(=O)c1 | – | > 100 µM | – | > 100 µM | – | – | > 100 µM | – | > 100 µM | – | > 100 µM | – | – | – | > 100 µM | – | > 100 µM | – | – | – |
| C=CCNC(=O)N(CCCCC(NC(C)=O)C(=O)NCc1ccccc1)Cc1ccccc1 (stereo unspecified) | – | > 100 µM | – | > 100 µM | – | – | > 100 µM | – | > 100 µM | – | > 100 µM | – | > 100 µM | – | > 100 µM | – | > 100 µM | > 100 µM | – | – |
| CCc1ccccc1NC(=O)C1=C(C)NC(C)=C(C(=O)Nc2ccccc2CC)C1c1ccccc1Cl | – | > 100 µM | – | > 100 µM | – | – | > 100 µM | – | > 100 µM | – | > 100 µM | – | > 100 µM | – | > 100 µM | – | – | – | – | – |
| COC1=C(N)C(=O)c2nc(C)ccc2C1=O | – | 3.27 µM | – | 3.23 µM | – | – | 3.68 µM | – | > 52.9 µM | – | 3.66 µM | – | > 40.8 µM | – | 3.08 µM | – | 3.2 µM | 3.49 µM | – | – |
| N#CC1(C#N)C2(c3ccccc3)OC(c3ccccc3)(c3cc4ccccc4cc32)C1(C#N)C#N | – | 28.5 µM | – | 18.1 µM | – | – | 23.7 µM | – | 4.88 µM | – | 27.2 µM | – | 5.34 µM | – | 13.8 µM | – | 37 µM | 26.7 µM | – | – |
